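Dose response: 5 concentrations. Exposure: 48 h. Format: 96-well plates. Endpoint: linear interpolation; highest concentration if not reached. At the GI50, growth is halved. TGI: concentration producing complete growth inhibition.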
These molecules were tested on SK-MEL-2 melanoma (assay: NCI tumour cell line growth inhibition, 48 h).
O=[n+]1c(CBr)c(CBr)n([O-])c2ccccc21 gave a GI50 of 15.3 µM and a TGI of 29.6 µM.

Each molecule was assayed on SK-MEL-28 melanoma (assay: NCI tumour cell line growth inhibition, 48 h).
Work on CC(C)CCNC(=O)c1ccc(CNC(=O)/C=C/c2ccc(OCc3ccccc3)cc2)cc1 yielded a TGI greater than 100 µM.
COc1ccccc1NC(=O)c1ccc(/C=C/C(=O)c2nccn2C)cc1 gave a GI50 of 0.57 µM and a TGI of 1.44 µM.
O=C1c2ccccc2C(=O)c2c1ccc1[nH]c(CCl)nc21 gave a GI50 of 6.58 µM and a TGI of 18.8 µM.
With O=[n+]1c(CBr)c(CBr)n([O-])c2ccccc21 the GI50 was 14.6 µM and the TGI was 28.1 µM.

What follows are molecules tested on SK-MEL-5 melanoma (assay: NCI tumour cell line growth inhibition, 48 h).
CC(C)CCNC(=O)c1ccc(CNC(=O)/C=C/c2ccc(OCc3ccccc3)cc2)cc1 gave a TGI greater than 100 µM.
With COc1ccccc1NC(=O)c1ccc(/C=C/C(=O)c2nccn2C)cc1 the GI50 was 648 nM and the TGI was 1.68 µM.
Molecule O=C1c2ccccc2C(=O)c2c1ccc1[nH]c(CCl)nc21 has a GI50 of 1680 nM and a TGI of 3.07 µM.
O=[n+]1c(CBr)c(CBr)n([O-])c2ccccc21 showed a GI50 of 15900 nM and a TGI of 29.5 µM.

The molecules below were run on SK-OV-3 ovarian (assay: NCI tumour cell line growth inhibition, 48 h).
CC(C)CCNC(=O)c1ccc(CNC(=O)/C=C/c2ccc(OCc3ccccc3)cc2)cc1 was tested, and the TGI was greater than 100 µM.
For COc1ccccc1NC(=O)c1ccc(/C=C/C(=O)c2nccn2C)cc1, the GI50 was 1.06 µM and the TGI was 10.7 µM.
O=C1c2ccccc2C(=O)c2c1ccc1[nH]c(CCl)nc21 gave a GI50 of 3.67 µM and a TGI of 9.08 µM.
Work on O=[n+]1c(CBr)c(CBr)n([O-])c2ccccc21 yielded a GI50 of 24.9 µM and a TGI greater than 100 µM.

These molecules were tested on SN12C renal (assay: NCI tumour cell line growth inhibition, 48 h).
CC(C)CCNC(=O)c1ccc(CNC(=O)/C=C/c2ccc(OCc3ccccc3)cc2)cc1 showed a TGI greater than 100 µM.
COc1ccccc1NC(=O)c1ccc(/C=C/C(=O)c2nccn2C)cc1 was tested, and the GI50 was 592 nM and the TGI was 1.56 µM.
With O=C1c2ccccc2C(=O)c2c1ccc1[nH]c(CCl)nc21 the GI50 was 2080 nM and the TGI was 4.87 µM.
O=[n+]1c(CBr)c(CBr)n([O-])c2ccccc21 gave a GI50 of 11000 nM and a TGI of 24.3 µM.

Each molecule was assayed on SNB-19 CNS (assay: NCI tumour cell line growth inhibition, 48 h).
For CC(C)CCNC(=O)c1ccc(CNC(=O)/C=C/c2ccc(OCc3ccccc3)cc2)cc1, the TGI was greater than 100 µM.
For COc1ccccc1NC(=O)c1ccc(/C=C/C(=O)c2nccn2C)cc1, the GI50 was 0.553 µM and the TGI was 1.59 µM.
Molecule O=C1c2ccccc2C(=O)c2c1ccc1[nH]c(CCl)nc21 has a GI50 of 3.52 µM and a TGI of 13.6 µM.
In the case of O=[n+]1c(CBr)c(CBr)n([O-])c2ccccc21, the GI50 is reported as 17.6 µM and the TGI is reported as 38.3 µM.

What follows are molecules tested on SNB-75 CNS (assay: NCI tumour cell line growth inhibition, 48 h).
Molecule CC(C)CCNC(=O)c1ccc(CNC(=O)/C=C/c2ccc(OCc3ccccc3)cc2)cc1 has a TGI greater than 100 µM.
Molecule COc1ccccc1NC(=O)c1ccc(/C=C/C(=O)c2nccn2C)cc1 has a GI50 of 342 nM and a TGI of 1.09 µM.
For O=C1c2ccccc2C(=O)c2c1ccc1[nH]c(CCl)nc21, the GI50 was 1560 nM and the TGI was 10.8 µM.
In the case of O=[n+]1c(CBr)c(CBr)n([O-])c2ccccc21, the GI50 is reported as 10600 nM and the TGI is reported as 47.6 µM.

These molecules were tested on SR leukemia (assay: NCI tumour cell line growth inhibition, 48 h).
For CC(C)CCNC(=O)c1ccc(CNC(=O)/C=C/c2ccc(OCc3ccccc3)cc2)cc1, the TGI was greater than 100 µM.
COc1ccccc1NC(=O)c1ccc(/C=C/C(=O)c2nccn2C)cc1 showed a GI50 of 242 nM and a TGI of 7 µM.
O=C1c2ccccc2C(=O)c2c1ccc1[nH]c(CCl)nc21 gave a GI50 of 2250 nM and a TGI of 13.8 µM.
O=[n+]1c(CBr)c(CBr)n([O-])c2ccccc21 showed a GI50 of 2820 nM and a TGI greater than 100 µM.

Each molecule was assayed on SW-620 colon (assay: NCI tumour cell line growth inhibition, 48 h).
In the case of CC(C)CCNC(=O)c1ccc(CNC(=O)/C=C/c2ccc(OCc3ccccc3)cc2)cc1, the TGI is reported as greater than 100 µM.
For COc1ccccc1NC(=O)c1ccc(/C=C/C(=O)c2nccn2C)cc1, the GI50 was 473 nM and the TGI was 1.22 µM.
O=C1c2ccccc2C(=O)c2c1ccc1[nH]c(CCl)nc21 was tested, and the GI50 was 1560 nM and the TGI was 3.3 µM.
O=[n+]1c(CBr)c(CBr)n([O-])c2ccccc21 gave a GI50 of 1860 nM and a TGI of 3.69 µM.

These molecules were tested on T-47D breast (assay: NCI tumour cell line growth inhibition, 48 h).
With CC(C)CCNC(=O)c1ccc(CNC(=O)/C=C/c2ccc(OCc3ccccc3)cc2)cc1 the TGI was greater than 100 µM.
In the case of COc1ccccc1NC(=O)c1ccc(/C=C/C(=O)c2nccn2C)cc1, the GI50 is reported as 711 nM and the TGI is reported as 2.58 µM.
In the case of O=C1c2ccccc2C(=O)c2c1ccc1[nH]c(CCl)nc21, the GI50 is reported as 1960 nM and the TGI is reported as 4.37 µM.
In the case of O=[n+]1c(CBr)c(CBr)n([O-])c2ccccc21, the GI50 is reported as 2580 nM and the TGI is reported as 6.8 µM.

Each molecule was assayed on TK-10 renal (assay: NCI tumour cell line growth inhibition, 48 h).
In the case of COc1ccccc1NC(=O)c1ccc(/C=C/C(=O)c2nccn2C)cc1, the GI50 is reported as 811 nM and the TGI is reported as 9.53 µM.
For O=C1c2ccccc2C(=O)c2c1ccc1[nH]c(CCl)nc21, the GI50 was 2910 nM and the TGI was 9.79 µM.
O=[n+]1c(CBr)c(CBr)n([O-])c2ccccc21 gave a GI50 of 1970 nM and a TGI of 4.17 µM.

These molecules were tested on U251 CNS (assay: NCI tumour cell line growth inhibition, 48 h).
CC(C)CCNC(=O)c1ccc(CNC(=O)/C=C/c2ccc(OCc3ccccc3)cc2)cc1 gave a TGI greater than 100 µM.
COc1ccccc1NC(=O)c1ccc(/C=C/C(=O)c2nccn2C)cc1 was tested, and the GI50 was 434 nM and the TGI was 1.02 µM.
Work on O=C1c2ccccc2C(=O)c2c1ccc1[nH]c(CCl)nc21 yielded a GI50 of 2210 nM and a TGI of 6.56 µM.
O=[n+]1c(CBr)c(CBr)n([O-])c2ccccc21 showed a GI50 of 14500 nM and a TGI of 29.8 µM.

What follows are molecules tested on UACC-257 melanoma (assay: NCI tumour cell line growth inhibition, 48 h).
CC(C)CCNC(=O)c1ccc(CNC(=O)/C=C/c2ccc(OCc3ccccc3)cc2)cc1 was tested, and the TGI was greater than 100 µM.
Work on COc1ccccc1NC(=O)c1ccc(/C=C/C(=O)c2nccn2C)cc1 yielded a GI50 of 0.972 µM and a TGI of 10.1 µM.
For O=C1c2ccccc2C(=O)c2c1ccc1[nH]c(CCl)nc21, the GI50 was 4.23 µM and the TGI was 15.1 µM.
Molecule O=[n+]1c(CBr)c(CBr)n([O-])c2ccccc21 has a GI50 of 13.6 µM and a TGI of 27.6 µM.

The molecules below were run on UACC-62 melanoma (assay: NCI tumour cell line growth inhibition, 48 h).
In the case of CC(C)CCNC(=O)c1ccc(CNC(=O)/C=C/c2ccc(OCc3ccccc3)cc2)cc1, the TGI is reported as greater than 100 µM.
With COc1ccccc1NC(=O)c1ccc(/C=C/C(=O)c2nccn2C)cc1 the GI50 was 472 nM and the TGI was 0.986 µM.
O=C1c2ccccc2C(=O)c2c1ccc1[nH]c(CCl)nc21 showed a GI50 of 2060 nM and a TGI of 4.99 µM.
Work on O=[n+]1c(CBr)c(CBr)n([O-])c2ccccc21 yielded a GI50 of 14100 nM and a TGI of 27.4 µM.

What follows are molecules tested on UO-31 renal (assay: NCI tumour cell line growth inhibition, 48 h).
In the case of CC(C)CCNC(=O)c1ccc(CNC(=O)/C=C/c2ccc(OCc3ccccc3)cc2)cc1, the TGI is reported as greater than 100 µM.
COc1ccccc1NC(=O)c1ccc(/C=C/C(=O)c2nccn2C)cc1 gave a GI50 of 357 nM and a TGI of 0.714 µM.
With O=C1c2ccccc2C(=O)c2c1ccc1[nH]c(CCl)nc21 the GI50 was 2720 nM and the TGI was 9.22 µM.
O=[n+]1c(CBr)c(CBr)n([O-])c2ccccc21 showed a GI50 of 1440 nM and a TGI of 3 µM.

From PubChem BioAssay (NCI)
